Data published in publication PMC5019375, “Characterization of Potent SMAC Mimetics that Sensitize Cancer Cells to TNF Family-Induced Apoptosis” (PLoS ONE, 2016).
“And” between values parts separate entries of the source, which are not always exact repeats. Equal entries are not always repeated. No end group written: not given here.

Experiments:
Assay in all cases: FP competition assay, displacement of SMAC-rhodamine
cIAP1-BIR3 = cIAP1-BIR3 (Homo sapiens, UniProt Q13490); conditions: for Ki: cIAP1 BIR3 Ki, 25 mM Hepes pH 7.5, 1 mM TCEP, 0.005% Tween 20, 20 nM SMAC-rhodamine, 40 mM β-glycerol phosphate, ~50 nM protein, Ki calculated from IC50; for binding affinity for cIAP1 and cIAP2 compared with XIAP: estimated by relative Ki values, cIAP1 and cIAP2 vs XIAP
Description: (§1) Solutions for assessing SMAC-rhodamine binding to various BIR domains were empirically optimized. […] For cIAP1-BIR3, the assay buffer was 25 mM Hepes [pH 7.5] containing 40 mM β-glycerol phosphate, 1 mM TCEP, and 0.005% Tween 20, typically with 20 nM SMAC-rhodamine. For cIAP1-BIR2, cIAP2-BIR2 and cIAP2-BIR3, assays were performed in 25 mM Hepes [pH 7.5] containing 1 mM TCEP and 0.005% Tween 20, typically with 20 nM SMAC-rhodamine.
(§2) For cIAP1-BIR2, assays were conducted using 25 mM Hepes [pH 7.5] containing 1 mM TCEP, 0.005% Tween 20, ~1 μM cIAP1-BIR2, and 20 nM SMAC-rhodamine. For cIAP1-BIR3, assays were performed using the same buffered solution, except 40 mM β-glycerol phosphate was added and the cIAP1-BIR3 concentration was reduced to 50 nM. For cIAP2-BIR2, assays included a buffer containing 25 mM Hepes [pH 7.5] containing 1 mM TCEP, 0.005% Tween 20, 1 μM cIAP2-BIR2, and 20 nM SMAC-rhodamine. […] IC50 values were determined with a nonlinear fit using Prism software. Ki values were determined from the IC50 values using an online program developed by Nikolovska-Coleska et al. [26].

cIAP1-BIR2 = cIAP1-BIR2 (Homo sapiens, UniProt Q13490)
Description: as §1, §2

cIAP2-BIR3 = cIAP2-BIR3 (Homo sapiens, UniProt Q13489)
Description: as §1, §2

cIAP2-BIR2 = cIAP2-BIR2 (Homo sapiens, UniProt Q13489)
Chain of cIAP2-BIR2 (Q13489 129-246): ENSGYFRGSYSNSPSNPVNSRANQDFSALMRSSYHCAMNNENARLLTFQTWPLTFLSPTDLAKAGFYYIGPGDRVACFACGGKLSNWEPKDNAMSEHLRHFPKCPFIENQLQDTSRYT
Description: as §1, §2

Chain of cIAP1-BIR2 (Q13490 144-260): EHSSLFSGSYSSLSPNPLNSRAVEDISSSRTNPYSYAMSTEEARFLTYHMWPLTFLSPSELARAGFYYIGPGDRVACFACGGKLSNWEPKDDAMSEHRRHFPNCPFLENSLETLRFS
Chain of cIAP2-BIR3 (Q13489 243-333): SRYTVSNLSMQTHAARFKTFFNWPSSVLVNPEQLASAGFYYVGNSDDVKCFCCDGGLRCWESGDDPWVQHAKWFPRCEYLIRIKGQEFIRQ
Chain of cIAP1-BIR3 (Q13490 257-356): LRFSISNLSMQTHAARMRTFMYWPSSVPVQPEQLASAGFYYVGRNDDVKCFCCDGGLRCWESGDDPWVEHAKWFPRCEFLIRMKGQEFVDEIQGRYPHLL

Row | Molecule | Ki (cIAP1-BIR3) | Ki (cIAP1-BIR2) [µM] | Ki (cIAP2-BIR3) [µM] | Ki (cIAP2-BIR2) [µM] | binding affinity for cIAP1 and cIAP2 compared with XIAP (cIAP1-BIR3)
1 | CN[C@@H](C)C(=O)N[C@@H](CC(=O)OC)C(=O)N1CCC[C@H]1C(=O)N[C@@H]1CCCc2ccccc21 [compound 6] | 0.08 µM | 2.16 | 0.19 | 6.38 | –
2 | CC(C)[C@H](NC(=O)[C@H](C)N)C(=O)N[C@@H](C)C(=O)Nc1cccc2ccccc12 [compound 17] | 1.23 µM | 3.77 | 0.98 | 5.98 | –
3 | CC[C@H](C)[C@H](NC(=O)[C@H](C)NC)C(=O)N1CCC[C@H]1C(=O)N[C@@H]1CCCc2ccccc21 [compound 2] | 0.04 µM | 1.11 | 0.09 | 2.08 | higher affinity binding to cIAP1 and cIAP2 than XIAP
4 | CN[C@@H](C)C(=O)N[C@H](C(=O)N[C@@H](CCCNC(=O)OCc1ccccc1)C(=O)N[C@@H]1CCCc2ccccc21)C(C)C [compound 10] | 0.28 µM | 1.41 | 0.22 | 2.07 | –
5 | CN[C@@H](C)C(=O)N[C@@H](CC(=O)O)C(=O)N1CCC[C@H]1C(=O)N[C@@H]1CCCc2ccccc21 [compound 7] | 9.4 µM | > 57.2 | 12.6 | > 56.7 | –
6 | CC[C@H](N)C(=O)N[C@H](C(=O)N[C@@H](C)C(=O)Nc1cccc2ccccc12)C(C)C [compound 20] | 4.77 µM | 24.9 | 5.29 | 43.8 | –
7 | CN[C@@H](C)C(=O)N[C@@H](CC(C)C)C(=O)N1CCC[C@H]1C(=O)N[C@@H]1CCCc2ccccc21 [compound 5] | 0.06 µM | 1.33 | 0.12 | 4.35 | –
8 | CN[C@@H](C)C(=O)N[C@@H](CCC(=O)O)C(=O)N[C@@H](C)C(=O)NNc1ccccc1 [compound 29] | 10.9 µM | 7.67 | 23 | 25.1 | –
9 | CC(C)[C@H](NC(=O)[C@H](C)N)C(=O)N[C@@H](CCCNC(=O)OCc1ccccc1)C(=O)Nc1cccc2ccccc12 [compound 21] | 0.85 µM | 2.77 | 0.99 | 4.79 | –
10 | AVPIAQK-NH2 [SMAC-7-mer, AVPIAQK, reference compound] | 0.45 µM | 15.4 | 0.42 | 26.4 | –
11 | CN[C@@H](C)C(=O)N[C@H](C(=O)N1CCC[C@@H]1C(=O)Nc1cccc2ccccc12)C(C)C [compound 16] | 0.18 µM and 0.2 µM | 1.73 | 0.2 | 3.35 | –
12 | CN[C@@H](C)C(=O)N[C@@H](CCC(N)=O)C(=O)N1CCC[C@H]1C(=O)N[C@@H]1CCCc2ccccc21 [compound 8] | 0.08 µM | 1.26 | 0.15 | 4.07 | –
13 | CN[C@@H](C)C(=O)N[C@H](C(=O)N[C@@H](CCCCNC(=O)OCc1ccccc1)C(=O)N[C@@H]1CCCc2ccccc21)C(C)C [compound 12] | 0.2 µM | 3.31 | 0.5 | 5.46 | –
14 | CC(C)[C@H](NC(=O)[C@@H](N)CO)C(=O)N[C@@H](C)C(=O)Nc1cccc2ccccc12 [compound 19] | 4.37 µM | 8.33 | 17.2 | 22.4 | –
15 | CN[C@@H](C)C(=O)N[C@H](C(=O)N[C@@H](CCCCN)C(=O)NNc1ccccc1)C(C)C [compound 35] | 2.83 µM | 2.18 | 1.35 | 5.09 | –
16 | CC[C@H](NC(=O)[C@H](C)NC)C(=O)N1CCC[C@H]1C(=O)N[C@@H]1CCCc2ccccc21 [compound 3] | 0.06 µM | 2.34 | 0.06 | 5.27 | higher affinity binding to cIAP1 and cIAP2 than XIAP
17 | CC(C)[C@H](NC(=O)[C@H](C)N)C(=O)N1CCC[C@H]1C(=O)NNc1ccccc1 [compound 36] | 0.34 µM | 6.11 | 0.57 | 12.9 | –
18 | CN[C@@H](C)C(=O)N[C@H](C(=O)N[C@@H](CCCNC(=O)OCc1ccccc1)C(=O)NNc1ccccc1)C(C)C [compound 31] | – | – | 1.29 | 2.93 | –
